Patent US9359423B2, “Protein involved in detection of cancer metastasis and a treatment thereof” (National University of Singapore, priority 2011, dated 2016)

Tests used:
[1] = tested on: AKT, FAK and MAPK pathway; experiment: Pathway activation after activation of TRPV4 by PDD; format: cell-based; conditions: PDD treatment, FIG. 4C
Excerpt: (§1) FIG. 4A—Silencing of TRPV4 expression was associated with a failure to produce a rise of intracellular Ca2+ upon stimulation with PDD. […] 4C—Activation of TRPV4 by PDD treatment stimulated AKT, FAK and MAPK pathway.

[2] = tested on: E-cadherin, b-catenin and paxillin; experiment: Expression of cell-adhesion proteins after activation of TRPV4 by PDD; format: cell-based; conditions: PDD treatment, FIG. 4B
Excerpt: as §1
FIG. 5—AKT mediates TRPV4-induced downregulation of E-cadherin and b-catenin. Down regulation of these cytoskeletal proteins correlate with an increase in cancer cell plasticity required for intravasation and extravasation processes during metastasis. Cells were either treated or not treated with PDD (activator of TRPV4) in the presence or absence of AKT inhibitor). Top 1 and 2 panels, inhibition of AKT is confirmed by probing the phosphorylation status of S6, a downstream target of AKT. Bottom 3-5 panels, PDD-induced downregulation of E-cadherin and b-catenin.

TRPV4 [3] = molecular target: T1, TRPV4 (Homo sapiens, UniProt Q9HBA0); conditions: cited from earlier work
T1 sequence (Q9HBA0 whole entry, species assumed): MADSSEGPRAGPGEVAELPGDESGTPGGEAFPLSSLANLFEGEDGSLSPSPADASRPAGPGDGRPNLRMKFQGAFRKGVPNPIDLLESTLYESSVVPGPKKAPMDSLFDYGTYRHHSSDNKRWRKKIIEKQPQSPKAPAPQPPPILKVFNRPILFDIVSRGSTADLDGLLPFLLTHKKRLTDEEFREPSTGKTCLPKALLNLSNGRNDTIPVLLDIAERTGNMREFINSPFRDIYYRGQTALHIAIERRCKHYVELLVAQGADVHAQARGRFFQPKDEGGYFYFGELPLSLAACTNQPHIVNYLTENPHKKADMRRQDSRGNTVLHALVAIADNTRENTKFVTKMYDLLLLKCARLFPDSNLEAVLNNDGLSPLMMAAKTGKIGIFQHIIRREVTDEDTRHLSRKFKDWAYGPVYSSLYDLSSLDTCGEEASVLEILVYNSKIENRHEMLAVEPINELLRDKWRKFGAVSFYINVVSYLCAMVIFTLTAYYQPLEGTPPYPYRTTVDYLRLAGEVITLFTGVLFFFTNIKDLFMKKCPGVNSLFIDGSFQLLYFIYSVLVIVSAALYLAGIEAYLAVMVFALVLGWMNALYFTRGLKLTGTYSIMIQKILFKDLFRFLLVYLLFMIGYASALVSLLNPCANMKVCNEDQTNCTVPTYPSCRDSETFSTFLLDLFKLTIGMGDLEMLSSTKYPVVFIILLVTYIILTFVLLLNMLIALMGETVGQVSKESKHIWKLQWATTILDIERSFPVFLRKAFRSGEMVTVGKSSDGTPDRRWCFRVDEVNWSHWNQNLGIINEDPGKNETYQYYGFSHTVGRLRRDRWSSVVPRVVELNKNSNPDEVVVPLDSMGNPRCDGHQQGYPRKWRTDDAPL

[4] = cited from earlier work
endogenous TRPV4 = molecular target: T2, endogenous TRPV4 (Mus musculus, UniProt Q9EPK8); conditions: read-out: IC50, endogenous TRPV4-mediated response to 4α-PDH; 4α-PDH stimulation; cited from earlier work
T2 construct: endogenous in cells
T2 sequence (Q9EPK8 whole entry): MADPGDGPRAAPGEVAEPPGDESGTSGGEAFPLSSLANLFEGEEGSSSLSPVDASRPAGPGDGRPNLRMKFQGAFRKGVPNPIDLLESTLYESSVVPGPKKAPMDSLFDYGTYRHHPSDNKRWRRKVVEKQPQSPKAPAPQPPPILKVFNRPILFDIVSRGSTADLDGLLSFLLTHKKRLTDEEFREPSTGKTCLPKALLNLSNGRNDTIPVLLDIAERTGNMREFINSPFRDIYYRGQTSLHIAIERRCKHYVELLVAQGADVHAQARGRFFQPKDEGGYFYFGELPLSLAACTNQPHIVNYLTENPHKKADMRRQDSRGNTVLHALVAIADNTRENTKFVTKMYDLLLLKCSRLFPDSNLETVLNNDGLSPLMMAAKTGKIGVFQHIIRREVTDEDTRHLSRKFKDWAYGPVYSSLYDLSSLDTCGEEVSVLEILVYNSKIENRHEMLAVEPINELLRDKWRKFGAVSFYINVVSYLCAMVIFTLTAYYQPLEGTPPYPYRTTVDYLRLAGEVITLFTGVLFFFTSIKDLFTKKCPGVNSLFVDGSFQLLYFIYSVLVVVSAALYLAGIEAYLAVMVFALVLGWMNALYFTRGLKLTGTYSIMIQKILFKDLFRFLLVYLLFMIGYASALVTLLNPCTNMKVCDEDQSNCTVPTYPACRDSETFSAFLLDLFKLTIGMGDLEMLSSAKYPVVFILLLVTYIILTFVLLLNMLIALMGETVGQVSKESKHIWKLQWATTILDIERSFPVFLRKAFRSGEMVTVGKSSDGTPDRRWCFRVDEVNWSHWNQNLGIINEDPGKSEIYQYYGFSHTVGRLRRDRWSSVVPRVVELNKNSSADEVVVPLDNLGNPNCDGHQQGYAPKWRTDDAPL

TRPV4 [5] = molecular target: T1, TRPV4; conditions: 4α-phorbol 12,13-didecanoate stimulation; cited from earlier work

## CCCCCCCCCC(=O)O[C@@H]1[C@@H](C)[C@@]2(O)[C@@H](C=C(CO)C[C@@]3(O)C(=O)C(C)=C[C@@H]23)[C@@H]2C(C)(C)[C@]12OC(=O)CCCCCCCCC [PDD, 4α-phorbol 12,13-didecanoate]
[1]
  AKT, FAK and MAPK pathway activation: stimulated
[2]
  Expression of cell-adhesion proteins like E-cadherin, b-catenin and paxillin: reduced

## N.N.N.N.N.N.N.N.N.N.N.N.N.N.[Cl-].[Cl-].[Cl-].[Cl-].[Cl-].[Cl-].[O-2].[O-2].[Ru+3].[Ru+3].[Ru+4] [Ruthenium red]
TRPV4 [3]
  Inhibition of TRPV4: known inhibitor of TRPV4

## Cc1c(C(=O)Nc2cccc(C(F)(F)F)c2)cc(-c2ccccc2)n1CCCN1CCOCC1 [formula 1, 2-Methyl-1-[3-(4-morpholinyl)propyl]-5-phenyl-N-[3-(trifluoromethyl)phenyl]-1H-pyrrole-3-carboxamide]
[4]; DMSO
  Solubility in DMSO: 100 mM
[4]; ethanol
  Solubility in ethanol: 25 mM
Endogenous TRPV4
  IC50: 0.022 µM

## Cc1c(C(=O)Nc2cccc(C(F)(F)F)c2)cc(-c2ccccc2)n1CCCN1CCOCC1 [formula 3]
TRPV4 [5]
  Effect on 4α-PDD-induced Ca2+ responses: reduces
